Test results: patent US8329693B2, “Method for the prevention of thromboembolic disorders” (Orion Corporation, priority 2004, dated 2012)

System: salt sensitive rat model
Assay: Stroke in salt sensitive rat model (summary statements)
Format: in vivo
Details: preventative treatment

For `CC(=O)Nc1ccc(C2=NNC(=O)C[C@H]2C)cc1` [metabolite (II), (R)—N-[4-(1,4,5,6-tetrahydro-4-methyl-6-oxo-3-pyridazinyl)phenyl]acetamide], the “incidence and volume of brain lesions, behavioural disorders and mortality associated with stroke” value was “markedly reduce”.
